Assay results from ChEMBL document CHEMBL4420075, “Seriniquinones, melanoma-specific anticancer agents” (2016).

system: HCT-116; assay: Cytotoxicity in human HCT116 cells by MTT assay; assay type: functional, cell-based

Point of comparison: CC(=O)Oc1ccc2c(=O)c3sc4c(=O)c5cc(O)ccc5c(=O)c4c3c(=O)c2c1, IC50 3500 nM. Against it:
- CC(=O)Oc1ccc2c(=O)c3c(sc4c(=O)c5cc(O)ccc5c(=O)c43)c(=O)c2c1 — 2.2-fold lower, 1600 nM
- O=c1c2ccccc2c(=O)c2c1sc1c(=O)c3cc(O)ccc3c(=O)c12 — 2.7-fold lower, 1300 nM
- O=c1c2ccccc2c(=O)c2c1sc1c(=O)c3ccc(O)cc3c(=O)c12 — 2.9-fold lower, 1200 nM
- O=c1c2ccccc2c(=O)c2c1sc1c(=O)c3ccc(Cl)cc3c(=O)c12 — 12-fold lower, 280 nM
- O=c1c2ccc(O)cc2c(=O)c2c1sc1c(=O)c3ccc(O)cc3c(=O)c12 — 2.2-fold lower, 1600 nM
- O=c1c2ccccc2c(=O)c2c1sc1c(=O)c3cc(Cl)ccc3c(=O)c12 — 23-fold lower, 150 nM
- O=C(Nc1ccc2c(=O)c3c(sc4c(=O)c5cc(NC(=O)C(F)(F)F)ccc5c(=O)c43)c(=O)c2c1)C(F)(F)F — 6-fold lower, 580 nM
- O=c1c2cc(O)ccc2c(=O)c2c1sc1c(=O)c3cc(O)ccc3c(=O)c12 — within 1.5-fold, 4400 nM
- O=C(Nc1ccc2c(=O)c3sc4c(=O)c5ccc(NC(=O)C(F)(F)F)cc5c(=O)c4c3c(=O)c2c1)C(F)(F)F — 7.3-fold lower, 480 nM
- CC(=O)Oc1ccc2c(=O)c3c(sc4c(=O)c5ccc(O)cc5c(=O)c43)c(=O)c2c1 — 1.9-fold lower, 1800 nM
- CC(=O)Oc1ccc2c(=O)c3c(sc4c(=O)c5cc(OC(C)=O)ccc5c(=O)c43)c(=O)c2c1 — 1.7-fold higher, 5800 nM
